From PMC10955399 (RSC Advances, 2024)

Key:
Staphylococcus = conditions: at the concentration tested; cited from earlier work
Enterococcus faecium = conditions: at the concentration tested; cited from earlier work
Acinetobacter baumannii = conditions: cited from earlier work
[1] = tested on: Bacillus cereus (MTCC2128); experiment: Agar well diffusion antibacterial activity; type: cell-based; conditions: for Zone of inhibition, Bacillus cereus: 100 μl, compound 1 mg mL^−1, radius of inhibition zone; for inhibitory activity against Bacillus cereus (in words): 1 mg mL^−1
[2] = tested on: Escherichia coli (MTCC2412); experiment: Agar well diffusion antibacterial activity; type: cell-based; conditions: for Zone of inhibition, Escherichia coli: compound 1 mg mL^−1, radius of inhibition zone

CC(C)=CCCC1(C)C(CC=C(C)C)CC23CCC(C)(C)OC2=C(C(=O)c2ccc(O)c(O)c2)C(=O)C1(CC=C(C)C)C3=O (centres unmarked) [schomburgkianone I]
inhibitory effect on Staphylococcus (in words) (Staphylococcus): exhibited inhibitory effects
inhibitory effect on Enterococcus faecium (in words) (Enterococcus faecium): exhibited inhibitory effects
activity against Acinetobacter baumannii (in words) (Acinetobacter baumannii): no activity

Nc1ncnc2c1c(I)nn2C=C1CC1(CO)CO [10b (Z-Isomer), (2-((4-amino-3-iodo-1H-pyrazolo[3,4-d]pyrimidin-1-yl)methylene)cyclopropane-1,1-diyl)dimethanol]
Zone of inhibition, Bacillus cereus [1]: 2.2 ± 0.25 mm

Nc1ncnc2c1c(I)nn2C=C1CC1(CO)CO [10b (E&Z), (2-((4-amino-3-iodo-1H-pyrazolo[3,4-d]pyrimidin-1-yl)methylene)cyclopropane-1,1-diyl)dimethanol]
inhibitory activity against Bacillus cereus (in words) [1]: showed inhibitory activity
Zone of inhibition, Bacillus cereus ([1]; listed as 10b): 1.4 ± 0.1 mm

Nc1ncnc2c1c(-c1ccc(Oc3ccccc3)cc1)nn2C=C1CC1(CO)CO [10c (E&Z), (2-((4-amino-3-(4-phenoxyphenyl)-1H-pyrazolo[3,4-d]pyrimidin-1-yl)methylene)cyclopropane-1,1-diyl) dimethanol]
inhibitory activity against Bacillus cereus (in words) [1]: showed inhibitory activity

Nc1ncnc2c1cnn2C=C1CC1(CO)CO [10a (Z-Isomer), (2-((4-amino-1H-pyrazolo[3,4-d]pyrimidin-1-yl)methylene)cyclopropane-1,1-diyl) dimethanol]
Zone of inhibition, Escherichia coli ([2]; 75 μl): 0.9 ± 0.05 mm
Zone of inhibition, Escherichia coli ([2]; 100 μl): 1.2 ± 0.15 mm

Nc1ncnc2c1cnn2C=C1CC1(CO)CO [10a (E&Z), (2-((4-amino-1H-pyrazolo[3,4-d]pyrimidin-1-yl)methylene)cyclopropane-1,1-diyl) dimethanol]
Zone of inhibition, Bacillus cereus ([1]; listed as 10a): 2.2 ± 0.25 mm
Zone of inhibition, Escherichia coli ([2]; 100 μl, listed as 10a): 1.2 ± 0.15 mm

Nc1ncnc2c1cnn2C=C1CC1(CO)CO [10a (E-Isomer), (2-((4-amino-1H-pyrazolo[3,4-d]pyrimidin-1-yl)methylene)cyclopropane-1,1-diyl) dimethanol]
inhibitory activity against Bacillus cereus (in words) [1]: showed inhibitory activity
zone of inhibition against Escherichia coli (in words) ([2]; 1 mg mL^−1): zone of inhibition was observed
Zone of inhibition, Escherichia coli ([2]; 75 μl): 0.9 ± 0.05 mm
